Results as given in ChEMBL document CHEMBL1201862, “PubChem BioAssay data set” (2004).
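In this assay, cells in 96-well plates receive the compound at five concentrations for 48 hours. Endpoints are linearly interpolated between the surrounding concentrations. GI50 is the concentration that inhibits growth by half.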 Calls of active or inactive are those of the source. No stated cut-off is given here; in the data, active = GI50 up to about 1.1 µM and inactive = higher.

Tests used:
Experiment in all cases: NCI tumour cell line growth inhibition, 48 h
[1] = tested on: SF-295
[2] = tested on: SK-MEL-28
[3] = tested on: SR
[4] = tested on: KM12
[5] = tested on: NCI/ADR-RES
[6] = tested on: SF-539
[7] = tested on: NCI-H460
[8] = tested on: UO-31
[9] = tested on: 786-0
[10] = tested on: BT-549
[11] = tested on: TK-10
[12] = tested on: SF-268
[13] = tested on: SNB-19
[14] = tested on: ACHN
[15] = tested on: SK-OV-3
[16] = tested on: COLO 205
[17] = tested on: RPMI-8226
[18] = tested on: HCC 2998
[19] = tested on: OVCAR-8
[20] = tested on: MCF7

SMILES | GI50 [1] | GI50 [2] | GI50 [3] | GI50 [4] | GI50 [5] | GI50 [6] | GI50 [7] | GI50 [8] | GI50 [9] | GI50 [10] | GI50 [11] | GI50 [12] | GI50 [13] | GI50 [14] | GI50 [15] | GI50 [16] | GI50 [17] | GI50 [18] | GI50 [19] | GI50 [20]
C=CC/C=C/Cc1csc(C(C)(C)C(O)C/C=C/C(=C)CCNC(=O)OC)n1 (stereo not given) | 1.28 µM (inactive) | > 87.1 µM (inactive) | 0.492 µM (active) | > 60.3 µM (inactive) | 75.7 µM (inactive) | > 100 µM (inactive) | 29.5 µM (inactive) | > 71.3 µM (inactive) | > 100 µM (inactive) | 3.33 µM (inactive) | > 100 µM (inactive) | 80.4 µM (inactive) | > 100 µM (inactive) | 49.7 µM (inactive) | > 85.3 µM (inactive) | 59.7 µM (inactive) | 30.7 µM (inactive) | > 95.3 µM (inactive) | > 73.5 µM (inactive) | 96.2 µM (inactive)
COc1cc2c(cc1OCCCCOc1cc(-c3ccc(F)cc3)nc(C)n1)N=C[C@@H]1CCCN1C2=O | 0.303 µM (active) | 0.982 µM (active) | 0.16 µM (active) | 0.728 µM (active) | 0.45 µM (active) | 0.927 µM (active) | 0.413 µM (active) | 0.5 µM (active) | 0.486 µM (active) | 0.579 µM (active) | 0.224 µM (active) | 0.771 µM (active) | 0.689 µM (active) | 0.189 µM (active) | 3.19 µM (inactive) | 0.346 µM (active) | 0.0519 µM (active) | 0.029 µM (active) | 0.989 µM (active) | 0.502 µM (active)
NCCCNCCCCN1CCOC1=O | > 100 µM (inactive) | > 100 µM (inactive) | > 100 µM (inactive) | > 100 µM (inactive) | > 100 µM (inactive) | > 100 µM (inactive) | > 100 µM (inactive) | > 100 µM (inactive) | > 100 µM (inactive) | > 100 µM (inactive) | > 100 µM (inactive) | > 100 µM (inactive) | > 100 µM (inactive) | > 100 µM (inactive) | > 100 µM (inactive) | > 100 µM (inactive) | > 100 µM (inactive) | > 100 µM (inactive) | > 100 µM (inactive) | > 100 µM (inactive)
Nc1nc(Cl)cc(NCCO)n1 | > 100 µM (inactive) | > 100 µM (inactive) | > 100 µM (inactive) | > 100 µM (inactive) | > 100 µM (inactive) | > 100 µM (inactive) | > 100 µM (inactive) | > 100 µM (inactive) | > 100 µM (inactive) | > 100 µM (inactive) | > 100 µM (inactive) | > 100 µM (inactive) | > 100 µM (inactive) | > 100 µM (inactive) | > 100 µM (inactive) | > 100 µM (inactive) | > 100 µM (inactive) | 72.6 µM (inactive) | > 100 µM (inactive) | > 100 µM (inactive)
C=CC(=O)C#Cc1cnc(OC)nc1OC | 41.4 µM (inactive) | 10.4 µM (inactive) | 2.49 µM (inactive) | 13.4 µM (inactive) | 31.3 µM (inactive) | 13.3 µM (inactive) | 24.6 µM (inactive) | 16.9 µM (inactive) | 4.15 µM (inactive) | 12.3 µM (inactive) | 15.6 µM (inactive) | 30.1 µM (inactive) | 19.1 µM (inactive) | 7.43 µM (inactive) | > 100 µM (inactive) | 3.83 µM (inactive) | 1.6 µM (inactive) | 19 µM (inactive) | 26.7 µM (inactive) | 5.13 µM (inactive)
